Laboratory results from patent publication US9383364B2, “Predictive marker of DNMT1 inhibitor therapeutic efficacy and methods of using the marker” (priority 2011, dated 2016).
“Also recorded” adds a separate entry of the source. Read-outs that look alike come from different tables or passages of the source.

Tests used:
[1] = system: Colo-205 xenografts; experiment: Colo-205 xenografts in nude mice; assay type: in vivo; settings: for non-specific toxicities as judged by body weight: 25 mg/kg daily for 21 days i.v., FIG. 7C; for in vivo antitumor efficacy: 25 mg/kg/day i.v. for 21 days, FIGS. 7A and 7B
[2] = system: global DNA methylation; experiment: global DNA methylation; assay type: cell-based
From the text: XB05 (BX11) has activities that slightly differ from other agents in this class of compounds. This is illustrated not only by the NCI 60 data, but also by the effects of XB05 (BX11) and 5-aza on cancer cells and tumor xenografts (FIG. 7). […] XB05 (BX11) and 5-aza may inhibit DNMT activity by different mechanisms.

[3] = system: A549 xenografts; experiment: A549 lung cancer xenograft model
From the text: (§1) U.S. Patent Publication No. 2008/0188570 (herein incorporated by reference in its entirety) further discloses more than 50 analogs of XB05 (BX11). […] In some embodiments, the DNMT1 inhibitor is XB05a (BX12).

[4] = system: breast cancer cell lines; experiment: NCI60 data, proliferation of breast cancer cell lines; assay type: cell-based, human; settings: all breast cancer cell lines, FIG. 4A, read-out: GI50 (cytostatic effects)
Method: (§2) FIG. 4A is NCI60 data showing the effect of XB05 (BX11) on proliferation of various breast cancer cell lines. All cells lines are sensitive to XB05 (BX11) cytostatic effects (GI50<100 nM), whereas a few are especially susceptible to cytotoxic effects (e.g., see 1 μM XB05 (BX11) data points).
A variety of different breast cancer cell lines were treated with 1 μM BX11, and the cytotoxic effect of 1 μM BX11 was determined. The cytotoxicity data for each breast cancer cell line was correlated with the SOX9 level present in each cell line prior to treatment.
(§3) BX11 (XB05) has potent antiproliferative and cytotoxic activity on a variety of breast cancer cell types, with some cell types having GI50 values less than or equal to 10 μM. There were several cell lines that seemed particularly sensitive to the cytotoxic effects of BX11 (BX05). […] The MDA-MB-231 cell line is derived from a triple negative breast cancer (TNBC) and MDA-MB-435 was originally described as being derived from a TNBC, although its origin is now uncertain (it is unquestionably derived from the same source as the M14 melanoma cell line and many believe it is a melanoma, although some argue that both cell lines are derived from a breast carcinoma). […] This latter assay is often used to assess activity against the subpopulation of stem-like cancer cells with enhanced tumor-initiating capacity.

[5] = system: MDA-MB-231; experiment: NCI60 breast cancer panel, cytotoxic effect; assay type: cell-based, human; settings: 1 μM BX11, FIG. 4A
Method: as §2, §3

[6] = system: MDA-MB-435; experiment: NCI60 breast cancer panel, cytotoxic effect; assay type: cell-based, human; settings: 1 μM BX11, FIG. 4A
Method: as §2, §3

[7] = system: MDA-MB-231 breast cancer cells; experiment: soft agar colony formation assay; assay type: cell-based; settings: stained 21 days after plating
Method: FIG. 4B are data from soft agar colony formation assays for MDA-MB-231 breast cancer cells. The cells were stained with crystal violet 21 days after plating.
FIG. 4C is a graph of the data from the soft agar colony formation assays for MDA-MB-231 breast cancer cells. The data shown are the mean±standard error (n=3).
as §3

[8] = system: MDA-MB-231 breast cancer cells; experiment: tumorsphere formation assay; assay type: cell-based; settings: day 12 after plating
Method: FIG. 4D are data from tumorsphere formation assays for MDA-MB-231 breast cancer cells on day 12 after plating. The data shown are representative images from three separate experiments.
FIG. 4E is a graph of the data from the tumorsphere formation assays for MDA-MB-231 breast cancer cells on day 12 after plating.
as §3

[9] = system: several cancer cell lines, including prostate cancer; experiment: activity against cancer cell lines (Table 2); assay type: cell-based
[10] = system: HOP92 cells; experiment: SOX9 siRNA knockdown, cell number and viability; assay type: cell-based; settings: 60 nM siRNA 24 hours, then XB05 48 hours
Method: In a second set of experiments, HOP92 cells were transfected for 24 hours with 60 nM siRNA against SOX9, control siRNA, or no RNA (mock). Knockdown of SOX9 was confirmed by Western blots (WB). Cells were then treated with XB05 (BX11) as indicated. After 48 hours, the cell number and viability for each sample was determined using an automated cell counter.

[11] = system: HCT116 cells; experiment: clonogenic survival and MTT proliferation assays; assay type: cell-based; settings: colon cancer, positive control
From the text: (§4) (3a) results from the NCI 60 cell screen showing a good correlation between the levels of expression of SOX9 and cell death induced by XB05 (BX11); (3b) Western blot showing expression of SOX9 in sensitive cell lines; (3c) clonogenic survival assay in cells sensitive or resistant to XB05 (BX11); (3d) MTT proliferation assays in cells sensitive or resistant to XB05 (BX11).
(§5) FIG. 3B are Western blots (WB) confirming expression of Biomarker X (SOX9) protein in the sensitive cell lines. […] Where indicated, HCT116 cells (colon cancer, sensitive to XB05 (BX11)) and LLC cells (murine lung carcinoma, resistant to XB05 (BX11)) are shown as positive and negative controls, respectively. (SOX9 levels were not assayed in LLC cells because they are of mouse origin).

[12] = system: LLC cells; experiment: clonogenic survival and MTT proliferation assays; assay type: cell-based; settings: murine lung carcinoma, negative control
From the text: as §4, §5

[13] = system: A549 lung cancer cells; experiment: sensitivity of A549 cells to XB05; assay type: cell-based
From the text: The present invention is based on the discovery that SOX9 expression in cancer cells is correlated with sensitivity to cell killing by XB05 (BX11). The COMPARE algorithm (Andrianasolo et al., J. Nat. Prod. 69:576-579, 2006) was used to search for correlations between response to XB05 (BX11) and gene expression using the NCI 60 cell line screen for XB05 (BX11) and the publicly available microarray studies of the NCI 60 panel. […] High levels of SOX9 expression were associated with high sensitivity to XB05 (BX11) across the 60 cell lines, as shown in FIG. 3. […] The experiments have been repeated multiple times and differences are statistically significant (p<0.05).

[14] = molecular target: T1, DNMT1 (Homo sapiens, UniProt P26358); experiment: in vitro DNMT1 activity assay; assay type: biochemical
From the text: FIG. 9A is a schematic of an exemplary in vitro DNMT activity assay.
(§6) The assays use recombinant Human DNMT1 (FIG. 5A) or nuclear extracts prepared from cells treated with XB05 (BX11) or XB05a (BX12) (FIG. 5B).
Target sequence in this assay (P26358 whole entry): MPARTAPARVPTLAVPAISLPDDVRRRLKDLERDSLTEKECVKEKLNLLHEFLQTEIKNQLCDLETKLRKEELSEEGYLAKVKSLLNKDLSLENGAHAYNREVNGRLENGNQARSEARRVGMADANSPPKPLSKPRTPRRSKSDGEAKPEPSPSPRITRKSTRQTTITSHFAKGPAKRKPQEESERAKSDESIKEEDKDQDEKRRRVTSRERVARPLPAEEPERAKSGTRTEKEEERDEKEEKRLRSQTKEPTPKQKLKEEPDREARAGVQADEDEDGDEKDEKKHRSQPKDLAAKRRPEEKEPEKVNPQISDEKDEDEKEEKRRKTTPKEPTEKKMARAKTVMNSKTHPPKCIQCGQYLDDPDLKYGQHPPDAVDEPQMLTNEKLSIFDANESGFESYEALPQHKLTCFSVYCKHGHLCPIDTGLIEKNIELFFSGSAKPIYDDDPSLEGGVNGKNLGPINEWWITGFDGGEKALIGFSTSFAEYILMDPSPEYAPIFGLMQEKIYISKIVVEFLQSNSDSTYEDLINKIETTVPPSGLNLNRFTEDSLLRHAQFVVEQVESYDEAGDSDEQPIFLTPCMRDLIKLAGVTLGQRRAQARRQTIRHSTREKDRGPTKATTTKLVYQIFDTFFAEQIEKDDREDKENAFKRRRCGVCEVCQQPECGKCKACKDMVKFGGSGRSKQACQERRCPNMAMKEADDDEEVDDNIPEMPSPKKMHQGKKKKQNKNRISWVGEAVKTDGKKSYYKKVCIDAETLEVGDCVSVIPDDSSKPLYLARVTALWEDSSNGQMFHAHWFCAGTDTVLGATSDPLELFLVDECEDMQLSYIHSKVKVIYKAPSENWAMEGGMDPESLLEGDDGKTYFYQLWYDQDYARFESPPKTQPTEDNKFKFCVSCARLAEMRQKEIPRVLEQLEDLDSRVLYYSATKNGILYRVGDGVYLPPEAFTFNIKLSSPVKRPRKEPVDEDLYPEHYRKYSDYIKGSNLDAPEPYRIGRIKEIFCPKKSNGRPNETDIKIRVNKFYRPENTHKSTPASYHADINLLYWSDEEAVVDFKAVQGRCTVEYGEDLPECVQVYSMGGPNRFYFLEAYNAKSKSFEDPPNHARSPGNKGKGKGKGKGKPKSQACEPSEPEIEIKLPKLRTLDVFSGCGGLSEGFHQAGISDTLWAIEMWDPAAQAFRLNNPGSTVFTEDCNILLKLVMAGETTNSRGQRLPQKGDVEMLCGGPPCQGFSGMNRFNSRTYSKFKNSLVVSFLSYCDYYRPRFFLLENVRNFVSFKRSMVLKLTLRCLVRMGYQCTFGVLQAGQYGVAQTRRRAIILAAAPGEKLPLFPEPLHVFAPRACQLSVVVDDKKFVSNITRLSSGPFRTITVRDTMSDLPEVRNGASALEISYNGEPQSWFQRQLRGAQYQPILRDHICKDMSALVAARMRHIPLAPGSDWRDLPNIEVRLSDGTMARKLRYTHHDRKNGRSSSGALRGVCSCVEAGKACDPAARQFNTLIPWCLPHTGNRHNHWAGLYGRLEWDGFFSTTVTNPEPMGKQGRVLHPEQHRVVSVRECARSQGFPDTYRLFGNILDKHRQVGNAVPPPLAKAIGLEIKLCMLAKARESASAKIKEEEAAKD

[15] = system: GSTP1 promoter from LNCaP cells; experiment: methylation specific PCR of GSTP1 promoter; assay type: cell-based; settings: 100 nm XB05 (BX11)
[16] = system: DU145 and LNCaP prostate cancer cells; experiment: RT-PCR mRNA expression of silenced tumor suppressor genes; assay type: cell-based
[17] = system: MDA-MB-231 breast cancer cells; experiment: RT-PCR and Western blotting of methylated (repressed) genes; assay type: cell-based; settings: 1 μM BX11 (XB05), 72 hours, control genes GAPDH and β-actin unchanged
Method: Experiments described above were performed to test the effect of BX11 (XB05) on DNMT1 activity. The expression of a number of methylated (repressed) genes in MDA-MB-231 breast cancer cells was further determined using both RT-PCR and Western blotting following treatment with vehicle (control), 1 μM BX11 (XB05), or 10 μM 5-azacytidine (positive control).

[18] = system: endothelial cell (HUVEC); experiment: transwell migration and tube formation assay; assay type: cell-based; settings: 800 nM XB05 (BX11)
[19] = system: HCT116 cells; experiment: induction of senescence; assay type: cell-based; settings: 96 h with 100 nM XB05 (BX11)
[20] = system: HCT116 xenografts; experiment: HCT116 xenografts; settings: in vivo
[21] = molecular target: T1, DNMT1; experiment: DNMT1 activity in nuclear extracts from treated cells; assay type: cell-based; parameters: endogenous in cells; settings: FIG. 5B
From the text: as §6
Target sequence in this assay (P26358 whole entry, species assumed): as the sequence (P26358 whole entry) above

[22] = aqueous stability; assay type: physicochemical; settings: addressed by cremaphor/ethanol/NaCl formulation
From the text: as §1

[23] = anti-proliferative assays; assay type: cell-based
From the text: as §1

## CCCCCC(C#CC(F)(F)Br)OC(C)=O (racemic) [XB05b (BX17)]
[1]
  non-specific toxicities as judged by body weight: no evidence of any severe non-specific toxicities
  in vivo antitumor efficacy: in vivo antitumor efficacy

## Nc1ncn([C@@H]2O[C@H](CO)[C@@H](O)[C@H]2O)c(=O)n1 [5-aza, 5-azacytidine, reference compound]
[2]
  effect on global DNA methylation: causes global DNA methylation
[2]; 5-aza used at higher concentrations than XB05 (BX11)
  activity relative to XB05 (BX11): less active
[3]; mouse, in vivo
  maximally tolerated dose: 6 mg/kg

## CCCCCC(O)C#CC(F)(F)Br (centres unmarked) [XB05 (BX11)]
[4]
  GI50: < 0.1 µM
[5]
  cell death: significant cell death
[6]
  cell death: significant cell death
[7]
  colony formation in soft agar: inhibit
[8]
  tumorsphere growth: inhibit
[9]
  potent activity against several cancer cell lines: Discovered by chance to have potent activity (<100 nM) against
[10]
  anti-proliferative effects after knockdown of SOX9 using a specific siRNA: completely blocked
[11]
  sensitivity to XB05 (BX11): sensitive
[12]
  sensitivity to XB05 (BX11): resistant
[13]
  sensitivity to XB05 (BX11): modest sensitivity
[14]; recombinant human DNMT1, FIG. 5A
  DNMT1 activity: inhibitory effects
[14]; summary statement, assay form not specified
  DNMT activity: Inhibits
[15]
  promoter methylation: inhibits
[16]
  reactivation of silenced tumor suppressor genes: reactivates
[16]; listed as XB05
  reactivation of silenced tumor suppressor genes: reactivates
[17]
  expression of genes commonly silenced by methylation: re-expressed
[17]; listed as BX11 (XB05)
  expression of genes commonly silenced by methylation: specific reactivation
[2]
  effect on global DNA methylation: no obvious effect
[2]; listed as XB05
  effect on global DNA methylation: including no effect on global DNA methylation.
[18]
  endothelial cell function (transwell migration, tube formation): inhibition; also recorded: inhibitory effects
  toxicity to HUVECs: non-toxic
[18]; listed as XB05
  endothelial cell function (transwell migration, tube formation): Inhibits endothelial cell activity in in vitro assays.
[19]
  senescence in cancer cells: induction of senescence; also recorded: induce cellular senescence
[19]; listed as XB05
  senescence in cancer cells: Induces senescence in cancer cells.
[20]
  tumor necrosis ("hollow" tumors): central tumor necrosis
[3]; i.v. 25 mg/kg/day x 21, monotherapy
  tumor growth delay, alone: significant tumor growth delay
[3]; i.v. 25 mg/kg/day x 21 plus cisplatin 4 x 4 mg/kg every 3 days
  tumor growth delay, in combination with cisplatin: significant tumor growth delay
[21]
  DNMT1 activity: inhibitory effects

## CC/C=C\CCC(O)C#CC(F)(F)Br (centres unmarked) [XB05a (BX12)]
[14]
  activity in DNMT1 inhibition assays compared to XB05 (BX11): equivalent or better activity
[1]
  non-specific toxicities as judged by body weight: no evidence of any severe non-specific toxicities
  in vivo antitumor efficacy: in vivo antitumor efficacy
[3]; 5-aza at 6 mg/kg
  antitumor activity alone compared with 5-aza alone: more active
[3]; data not shown
  myelotoxicity: no significant myelotoxicity
[3]; mouse, in vivo
  toxicity (body weight loss) compared with 5-aza or cisplatin: much less toxicity
[22]
  aqueous stability: poor
[23]
  activity in anti-proliferative assays compared to XB05 (BX11): equivalent or better activity
